Entries after “also recorded” stand apart in the source; their conditions may differ.
How the values were obtained:
PC12 cells = assay: NGF-stimulated neurite outgrowth in PC12 cells; format: cell-based; conditions: 100 nM compound, NGF 100 ng/ml, 6 days
Procedure: In chronic pain states, neurons form outgrowths which sensitize them to pain. NGF-induced neurite outgrowth was used as an assay for TrkA-dependent chronic/neuropathic pain activity.
Methods: PC12 cells were grown in 2% FBS and treated with or without NGF (100 ng/ml) 30 min before adding of vehicle or TRKA compounds for 6 days, changing media on day 3. On day 6 cells were fixed and stained for SRB before photographed for neurite outgrowth.

PC-12 cells = assay: PC-12 cell cytotoxicity; format: cell-based; conditions: FIG. 13
MMP-1 in A549 cells [1] = assay: PMA induced MMP-1 production in A549 cells; format: cell-based; conditions: one hour treatment
IL-8 in A549 cells = assay: PMA-induced IL-8 levels in A549 cells, with or without RU-486; format: cell-based; conditions: 4 hr treatments
FKBP51 (GR pathway) = assay: GR specific anti-inflammatory marker FKBP51 in A549 cells; format: cell-based
A549 cells [2] = assay: TNFα-induced acute inflammation in A549 cells; format: cell-based; conditions: 100 nM Dex or 1 μM compound (VI)
A549 cells [3] = assay: Prolonged inflammation (PMA induced MMP-1 or IL-8) in A549 cells; format: cell-based; conditions: FIG. 17
From the text: Panel 3: All the above were done on the transcriptional level (i.e., MMP-1, IL-8, etc. expressions). For IL-8, this was verified on the translational (i.e., protein expression) level as well.

MMP-1 in A549 cells [4] = assay: Combination of Trk inhibitor and glucocorticoid on MMP-1 expression in A549 cells; format: cell-based; conditions: sub-optimal concentrations
ROS = ROS (Homo sapiens, UniProt P08922); assay: ROS cell free kinase assay (Table 3A); format: biochemical
Chain of ROS (P08922 28-2347): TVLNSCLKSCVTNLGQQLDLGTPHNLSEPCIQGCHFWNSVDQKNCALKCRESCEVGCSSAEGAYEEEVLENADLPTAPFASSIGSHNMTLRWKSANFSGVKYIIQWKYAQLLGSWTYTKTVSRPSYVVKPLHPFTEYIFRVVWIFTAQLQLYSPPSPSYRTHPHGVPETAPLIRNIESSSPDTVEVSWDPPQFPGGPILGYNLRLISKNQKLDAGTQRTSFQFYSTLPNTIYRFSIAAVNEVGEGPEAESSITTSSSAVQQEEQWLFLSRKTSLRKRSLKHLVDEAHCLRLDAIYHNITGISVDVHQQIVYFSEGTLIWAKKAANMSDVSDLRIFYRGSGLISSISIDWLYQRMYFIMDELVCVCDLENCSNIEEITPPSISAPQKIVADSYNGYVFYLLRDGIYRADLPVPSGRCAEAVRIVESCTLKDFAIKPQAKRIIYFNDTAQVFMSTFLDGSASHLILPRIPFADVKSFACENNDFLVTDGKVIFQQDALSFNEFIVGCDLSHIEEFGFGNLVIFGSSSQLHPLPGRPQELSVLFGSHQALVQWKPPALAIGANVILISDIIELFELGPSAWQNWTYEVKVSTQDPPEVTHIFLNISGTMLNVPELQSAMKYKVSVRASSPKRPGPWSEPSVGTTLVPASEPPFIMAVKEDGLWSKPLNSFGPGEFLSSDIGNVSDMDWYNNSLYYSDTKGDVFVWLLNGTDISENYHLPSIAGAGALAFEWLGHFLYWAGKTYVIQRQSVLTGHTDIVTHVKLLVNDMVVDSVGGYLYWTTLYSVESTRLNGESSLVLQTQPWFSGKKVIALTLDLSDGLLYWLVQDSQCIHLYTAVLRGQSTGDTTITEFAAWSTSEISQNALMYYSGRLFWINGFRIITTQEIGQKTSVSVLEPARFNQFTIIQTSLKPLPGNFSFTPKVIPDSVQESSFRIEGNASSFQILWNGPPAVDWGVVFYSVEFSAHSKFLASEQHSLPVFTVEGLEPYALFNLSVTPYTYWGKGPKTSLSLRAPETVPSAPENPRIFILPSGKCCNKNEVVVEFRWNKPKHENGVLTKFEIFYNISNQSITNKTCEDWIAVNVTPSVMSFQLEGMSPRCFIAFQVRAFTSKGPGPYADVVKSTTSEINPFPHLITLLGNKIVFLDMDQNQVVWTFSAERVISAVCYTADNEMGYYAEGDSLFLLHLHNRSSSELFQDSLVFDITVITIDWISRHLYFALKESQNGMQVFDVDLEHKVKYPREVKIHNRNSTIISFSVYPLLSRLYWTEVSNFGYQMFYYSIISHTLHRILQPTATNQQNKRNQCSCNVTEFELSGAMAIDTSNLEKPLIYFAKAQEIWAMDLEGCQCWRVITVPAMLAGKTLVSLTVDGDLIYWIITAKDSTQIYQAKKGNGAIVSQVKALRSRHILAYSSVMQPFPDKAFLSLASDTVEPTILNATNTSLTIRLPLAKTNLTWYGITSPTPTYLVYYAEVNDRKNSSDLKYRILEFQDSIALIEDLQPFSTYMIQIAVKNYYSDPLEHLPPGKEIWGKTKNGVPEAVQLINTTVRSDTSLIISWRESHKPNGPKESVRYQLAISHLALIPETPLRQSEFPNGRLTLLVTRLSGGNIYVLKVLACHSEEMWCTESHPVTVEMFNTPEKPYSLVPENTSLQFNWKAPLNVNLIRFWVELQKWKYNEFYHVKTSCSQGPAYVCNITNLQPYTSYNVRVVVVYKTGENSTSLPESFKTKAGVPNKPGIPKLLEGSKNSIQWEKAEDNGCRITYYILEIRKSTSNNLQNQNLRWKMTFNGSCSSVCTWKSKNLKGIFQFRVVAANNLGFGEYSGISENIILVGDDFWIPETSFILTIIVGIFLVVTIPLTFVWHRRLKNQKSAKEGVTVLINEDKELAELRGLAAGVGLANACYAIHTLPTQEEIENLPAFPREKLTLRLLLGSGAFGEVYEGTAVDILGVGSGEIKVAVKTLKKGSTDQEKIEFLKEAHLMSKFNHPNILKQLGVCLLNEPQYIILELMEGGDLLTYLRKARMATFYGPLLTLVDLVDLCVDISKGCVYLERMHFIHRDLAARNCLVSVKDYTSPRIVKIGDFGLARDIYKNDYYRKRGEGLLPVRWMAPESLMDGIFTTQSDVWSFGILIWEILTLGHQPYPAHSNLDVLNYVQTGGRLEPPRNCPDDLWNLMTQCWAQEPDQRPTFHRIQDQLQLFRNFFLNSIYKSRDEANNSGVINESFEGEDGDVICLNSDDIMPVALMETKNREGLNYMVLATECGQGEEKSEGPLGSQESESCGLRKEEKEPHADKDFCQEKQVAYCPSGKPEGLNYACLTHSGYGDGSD

RET = RET (Homo sapiens, UniProt P07949); assay: RET cell free kinase assay (Table 3A); format: biochemical
Chain of RET (P07949 29-1114): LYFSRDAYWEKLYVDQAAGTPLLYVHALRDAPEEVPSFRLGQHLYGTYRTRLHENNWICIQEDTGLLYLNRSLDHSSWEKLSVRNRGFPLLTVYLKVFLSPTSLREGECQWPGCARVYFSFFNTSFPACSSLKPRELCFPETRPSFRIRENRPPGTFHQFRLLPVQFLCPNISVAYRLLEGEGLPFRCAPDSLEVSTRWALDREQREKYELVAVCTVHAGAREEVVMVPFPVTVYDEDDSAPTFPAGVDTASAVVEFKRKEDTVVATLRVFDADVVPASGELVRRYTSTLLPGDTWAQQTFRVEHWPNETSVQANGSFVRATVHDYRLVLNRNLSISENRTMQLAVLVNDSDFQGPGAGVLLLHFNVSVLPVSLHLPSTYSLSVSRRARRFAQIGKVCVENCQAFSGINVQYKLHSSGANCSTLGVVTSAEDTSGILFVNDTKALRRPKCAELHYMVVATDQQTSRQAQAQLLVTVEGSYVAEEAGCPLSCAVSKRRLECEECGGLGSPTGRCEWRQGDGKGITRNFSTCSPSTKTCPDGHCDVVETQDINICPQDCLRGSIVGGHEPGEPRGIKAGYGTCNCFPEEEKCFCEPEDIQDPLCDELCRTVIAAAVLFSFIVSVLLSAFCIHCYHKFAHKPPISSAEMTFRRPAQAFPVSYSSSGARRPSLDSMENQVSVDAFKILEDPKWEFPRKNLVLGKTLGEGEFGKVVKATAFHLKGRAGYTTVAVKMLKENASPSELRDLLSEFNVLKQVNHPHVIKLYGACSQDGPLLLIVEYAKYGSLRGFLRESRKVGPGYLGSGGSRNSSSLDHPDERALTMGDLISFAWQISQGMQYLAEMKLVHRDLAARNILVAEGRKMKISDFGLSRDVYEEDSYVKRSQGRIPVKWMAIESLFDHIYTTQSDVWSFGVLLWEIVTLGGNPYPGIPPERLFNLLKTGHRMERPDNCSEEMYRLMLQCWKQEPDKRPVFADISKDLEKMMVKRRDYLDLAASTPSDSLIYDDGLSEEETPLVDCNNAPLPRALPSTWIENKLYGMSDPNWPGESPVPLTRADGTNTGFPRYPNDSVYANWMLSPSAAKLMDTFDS

Karpas299 = assay: Cell proliferation inhibition, ALCL line Karpas299; format: cell-based; conditions: Homo sapiens, KARPAS-299; Table 3A; read-out: Cellular IC50 K-299
From the text: The IL-3-dependent lymphoid cell line BaF3 or BaF3 rendered IL-3-independent by engineered expression of NPM-ALK were used in parallel to test each candidate inhibitor. Control wells contained DMSO solvent without test compound. Specific inhibition of ALK signaling is indicated in the assay by impairment of NPM-ALK-expressing BaF3 cell growth without alterations in the growth of parental BaF3. This colorimetric assay of cell proliferation and viability is based upon reduction of the yellow monotetrazolium salt XTT to a water-soluble orange formazan dye, a reaction catalyzed by mitochondrial dehydrogenases in living cells only (Cell Proliferation Kit II, Cat. #1 465 015, Roche Biochemicals). In addition to testing compounds for their ability to impair the growth of BaF3 cells engineered to express NPM-ALK, the NPM-ALK-positive human lymphoma cell line Karpas-299 (Deutsche Sammlung von Mikroorganismen and Zellkulturen GmbH (DSMZ) no. ACC 31), the human BCR-ABL-positive chronic myeloid leukemia cell line K562 (American Type Culture Collection (ATCC) no. CCL-243), and the human T-cell leukemia line Jurkat (DSMZ no. ACC 282) were tested in these assays.
Each compound stock in 100% DMSO was first diluted using 8% DMSO/culture medium to produce a working stock of 250 μM compound. This working stock was then used to perform serial 1:1 dilutions (i.e., 125 μM, 62.5 μM, 31.25 μM, 15.625 μM, 7.8125 μM, and 3.90625 μM) using DMSO-free culture medium. Twenty (20) μL of each of these dilutions was then added to the cells (2×10^4 cells in 80 μL culture medium per 96-well) to obtain the final test compound concentrations (i.e., 25 μM, 12.5 μM, 6.25 μM, 3.125 μM, 1.5625 μM, and 0.78125 μM).
(§1) Cell proliferation inhibition assays were run for compound (II) with the five target NPM-ALK-dependent ALCL cell lines (Karpas 299, SuDHL-1, JB6, SupM2, UConn) and 12 unrelated cell lines (HEK293, CHO-K1, MCF7, HepG2, H292, H520, H1581, H596, H522, CHA-GO-K1, UMC-11, SK-MES1). […] The pronounced target cell-killing effect is also observed (molecular mechanisms to be determined).

SUDHL-1 = assay: Cellular IC50, SUDHL-1; format: cell-based; conditions: Homo sapiens, SU-DHL-1; Table 3A
From the text: as §1

U937 = assay: Cellular IC50, U937; format: cell-based; conditions: Homo sapiens, U-937; Table 3A
[5] = Liver microsome stability, Human LM-P1 / HLM; format: in vitro ADME; conditions: Table 3A, human liver microsomes; read-out: CL HLM
From the text: Metabolic stability of compound (II) (labeled as CRL241 below) in vitro has been tested in a standard in vitro microsomal stability assay in human microsomes (Cerep Study 13170).

[6] = Liver microsome stability, Mouse LM-P1 / MLM; format: in vitro ADME; conditions: Table 3A, mouse liver microsomes; read-out: CL MLM
TRKA = TRKA (Homo sapiens, UniProt P04629); assay: TRKA kinase assay; format: biochemical; parameters: 6×His- or GST-tagged kinase domain fragments of the corresponding RTKs expressed in baculovirus system; host or cells: baculovirus system; conditions: Table 3A; read-out: Cell Free IC50 TRKA
Chain of TRKA (P04629 510-781 limits assumed): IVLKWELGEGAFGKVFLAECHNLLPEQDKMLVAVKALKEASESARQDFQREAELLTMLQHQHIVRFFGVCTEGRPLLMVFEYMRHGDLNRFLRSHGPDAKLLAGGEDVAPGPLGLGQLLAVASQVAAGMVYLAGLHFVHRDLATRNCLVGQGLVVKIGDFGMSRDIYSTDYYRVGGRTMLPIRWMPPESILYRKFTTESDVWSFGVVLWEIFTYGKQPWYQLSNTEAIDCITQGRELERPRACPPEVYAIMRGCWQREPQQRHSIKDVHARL

ALK = ALK (Homo sapiens, UniProt Q9UM73); assay: ALK kinase assay (Kinase-Glo / AlphaScreen, purified NPM-ALK); format: biochemical; parameters: fused to the complete intracytoplasmic portion of ALK containing the functional tyrosine kinase domain; 6xHis; made in house; host or cells: insect cells; the other entry of the earlier key: NPM1 (P06748, Nucleophosmin); conditions: Table 3A; read-out: Cell Free IC50 ALK;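 further: recombinant baculovirus-expressed ALK kinase domain, activity read either as leftover ATP by Kinase-Glo luminescence or as poly(Glu-Tyr) phosphorylation by anti-phosphotyrosine AlphaScreen proximity signal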
Chain of ALK (Q9UM73 with tags, fused parts or gaps): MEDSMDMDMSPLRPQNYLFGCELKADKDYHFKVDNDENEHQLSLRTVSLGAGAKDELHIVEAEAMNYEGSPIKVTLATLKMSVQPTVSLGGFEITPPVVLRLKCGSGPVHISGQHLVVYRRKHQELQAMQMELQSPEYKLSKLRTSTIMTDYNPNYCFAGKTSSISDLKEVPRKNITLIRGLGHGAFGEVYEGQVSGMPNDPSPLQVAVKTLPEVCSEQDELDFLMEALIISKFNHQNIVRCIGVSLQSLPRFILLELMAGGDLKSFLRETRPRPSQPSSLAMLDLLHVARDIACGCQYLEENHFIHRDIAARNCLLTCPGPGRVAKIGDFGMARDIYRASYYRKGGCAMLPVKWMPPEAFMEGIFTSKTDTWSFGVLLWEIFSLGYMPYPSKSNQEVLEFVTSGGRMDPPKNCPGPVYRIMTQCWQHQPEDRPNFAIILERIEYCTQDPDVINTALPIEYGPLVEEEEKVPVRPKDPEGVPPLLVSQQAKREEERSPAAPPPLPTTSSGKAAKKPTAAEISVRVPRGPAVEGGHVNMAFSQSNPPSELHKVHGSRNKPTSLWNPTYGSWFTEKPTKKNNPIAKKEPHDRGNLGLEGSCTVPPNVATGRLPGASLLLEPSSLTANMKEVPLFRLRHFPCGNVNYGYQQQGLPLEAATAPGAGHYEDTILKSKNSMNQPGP

ALCL cell lines = assay: Proliferation of NPM-ALK-dependent ALCL / ALK+ T-cell lymphoma cell lines; format: cell-based; conditions: FIGS. 5, 6
From the text: as §1

**Q.** Which NGF-stimulated neurite outgrowth (PC12 cells) does the source give for `C[C@@H](Cc1cc(F)cc(F)c1F)Nc1cc[nH]c(=O)c1-c1nc2cc3c(cc2[nH]1)CN(CCN(C)C)C3=O` [compound (VI)] here?
**A.** inhibited the neurite outgrowth

**Q.** And the PC-12 cell cytotoxicity (PC-12 cells)?
**A.** lack of PC-12 cell cytotoxicity

**Q.** And the “Concentration required for complete inhibition of PMA induced MMP-1 production” value (MMP-1 in A549 cells [1])?
**A.** ~1 µM

**Q.** What about the “Effect of GR antagonist RU-486 on inhibition of PMA-induced IL-8 levels” value (IL-8 in A549 cells) of the same compound?
**A.** not affected or possibly were more potent

**Q.** And the “Activation of GR pathway (FKBP51 marker)” value (FKBP51 (GR pathway))?
**A.** did not active the GR pathway

**Q.** What about the TNFα-induced acute inflammation (A549 cells [2]) of the same compound?
**A.** partially reversible

**Q.** And the “Anti-inflammatory effect on prolonged inflammation (PMA induced MMP-1 or IL-8)” value (A549 cells [3])?
**A.** anti-inflammatory activity was observed; also recorded: demonstrated anti-inflammatory activity which was not reversible by GR antagonist

**Q.** What about the “Effect of combination with Dex on PMA-induced inflammation (MMP-1 expression)” value (MMP-1 in A549 cells [4]) of the same compound?
**A.** additive anti-inflammatory effects

**Q.** For `C[C@@H](Cc1c(F)c(F)cc(F)c1F)Nc1cc[nH]c(=O)c1-c1nc2cc3c(cc2[nH]1)C(=O)N(C1CCN(C)CC1)C3`, which IC50 (ROS) is on record?
**A.** 0.3 nM

**Q.** And the IC50 (RET)?
**A.** 6 nM

**Q.** What about the IC50 (Karpas299) of the same compound?
**A.** 99 nM

**Q.** What about the IC50 (SUDHL-1) of the same compound?
**A.** 93 nM

**Q.** And the IC50 (U937)?
**A.** 1180 nM

**Q.** What about the CLint scaled [5] of the same compound?
**A.** < 5.8 mL/min/kg

**Q.** What about the CLint scaled [6] of the same compound?
**A.** < 5.8 mL/min/kg

**Q.** And the IC50 (TRKA)?
**A.** 5 nM

**Q.** And the IC50 (ALK)?
**A.** 10 nM

**Q.** With `C[C@@H](Cc1cccs1)Nc1cc[nH]c(=O)c1-c1nc2cc3c(cc2[nH]1)C(=O)N(CCCN1CCCC1)C3` [compound (V)] as the compound, how does the “Inhibition of ALCL / ALK+ T-cell lymphoma cell line proliferation” value (ALCL cell lines) read?
**A.** potent and highly selective inhibitor of ALCL cell lines

Source: patent US9249147B2, “Tyrosine kinase inhibitors” (CHEMBRIDGE CORPORATION, priority 2008, dated 2016)
